Experimental data as given in US12403144B2, “HECT E3 ligase inhibitors and uses thereof” (IFOM FONDAZIONE ISTITUTO FIRC DI ONCOLOGIA MOLECOLARE, priority 2019, dated 2025).
Where a name gives a salt, the structure may show the parent alone.

The compounds below were run against T1, untagged HECT of NEDD4 wild-type (WT) (E3 ligase) (Homo sapiens, UniProt P46934) (assay: In vitro ubiquitination assay TR-FRET based (self-ubiquitination of NEDD4)). Settings: at 11 μM; pre-incubated for 1 hour; AUC of 120 minutes kinetic; read-out: percentages of inhibition (NEDD4).
T1 construct: untagged HECT of NEDD4 wild-type (WT) (E3 ligase); made in house
T1 sequence (P46934 519-900 isoform P46934-4 limits assumed): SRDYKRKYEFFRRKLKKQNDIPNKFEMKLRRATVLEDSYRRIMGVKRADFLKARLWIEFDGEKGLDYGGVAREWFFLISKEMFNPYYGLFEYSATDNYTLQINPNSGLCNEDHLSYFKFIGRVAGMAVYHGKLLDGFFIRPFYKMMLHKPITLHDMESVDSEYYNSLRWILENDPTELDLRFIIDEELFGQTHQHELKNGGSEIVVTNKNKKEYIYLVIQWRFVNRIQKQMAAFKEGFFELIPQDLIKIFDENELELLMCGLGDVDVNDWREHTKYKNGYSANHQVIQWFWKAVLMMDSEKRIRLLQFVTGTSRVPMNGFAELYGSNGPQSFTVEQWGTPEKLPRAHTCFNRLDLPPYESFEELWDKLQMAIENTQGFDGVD
Type: biochemical
From the text: FIG. 1: TR-FRET kinetic assay performed with compound 12. […] Reactions were initiated with the addition of ATP. As labeled ubiquitin molecules become incorporated into chains they come into close proximity, resulting in energy transfer and increased signal to background detection. The activity of the enzyme is continuously and real time detected and it is expressed as % of signal/background during the time.
In order to quantitatively measure the self-ubiquitination process of the E3 HECT ligase NEDD4 the inventors employed a TR-FRET based assay. TR-FRET technology exploits the long-lasting emission of lanthanide fluorescence to interpose a short time-delay between FRET donor excitation and emission. This phenomenon enables to isolate real fluorescent signals from short-lived background emissions, thus reducing possible interference from compounds.
In the present study, elongation of the ubiqutin chain by NEDD4 is measured by adding bacterially expressed E1, His-tagged UBE2D3 (E2) and untagged HECT of NEDD4 wild-type (WT) (E3 ligase) (named in FIG. 1 as WT) enzymes to a mixture of Eu-cryptate ubiquitin, Cy5-ubiquitin and wild-type ubiquitin, combined in a ratio optimized for TR-FRET based conjugation (100×TRF-Ubiquitin Mix, SBB-TR0051). […] Bacterially expressed E1, His-tagged UBE2D3 (E2), untagged HECT NEDD4 (E3 ligase) WT and NEDD4 C/A enzymes were produced and purified as reported in E. Maspero et al. Methods Mol Biol. 1449:153-60 (2016).
Enzymatic incorporation of the labeled TRF-Ubiquitin mix into chains leads to an increase in fluorescence emission at 665 nm (emission of the acceptor Cy5-Ubiquitin, Emacceptor) and decrease at emission wavelength 620 nm (emission of the donor Eu-cryptate Ubiquitin, Emdonor).
The assay was performed in a 384-well plate format (Optiplate, Perkin Elmer, #6007290) on an automated liquid-handler (Hamilton STAR, Hamilton Robotics, Switzerland).
All compounds were dissolved in 100% DMSO and serially diluted in 96-well plates (from 100 μM to 0.005 μM).
Briefly, all reagents were thawed and kept on ice. A master mix containing E1, E2, E3 and TRF-Ubiquitin Mix (SBB-TR0051) diluted in the assay buffer (Tris-HCl pH 7.6 25 mM, NaCl 100 mM, MgCl2 5 mM and Tween 0.01%) is prepared and 50 μl/well is dispensed in a 384 well plate. 3 μl of compounds dissolved in DMSO in the above-indicated concentration range were added and pre-incubated for 1 hour. Final E1, E2 and E3 concentrations in the assay buffer (Tris-HCl pH 7.6 25 mM, NaCl 100 mM, MgCl2 5 mM and Tween 0.01%) were 30, 350 and 50 nanomolars, respectively. The reaction was initiated with the addition of ATP (22 μl of 2 mM ATP, JenaBioscience, NU-1010) and was allowed to proceed for 120 minutes, measuring fluorescence emission at 665 nm and 620 nm in real-time on an EnSpire microplate reader (Perkin Elmer).
Kinetic raw data were analyzed by Area Under the Curve (AUC) method using Prism GraphPad software.
% signal/background corresponds to the following equation: (Experimental signal−Background signal)/Background signal×100%
Experimental signal corresponds to the signal obtained by the enzymatic reaction in presence of the vehicle (DMSO) and/or the different compound concentrations. Background signal corresponds to the signal obtained by the enzymatic reaction in absence of ATP.
The relative potency of the compounds was evaluated by dose-response curves following the enzymatic reaction of HECT NEDD4 WT in real time for 120 minutes.
Percentage of inhibition is then determined by the equation: % inhibition=100×[1−(X)/(MAX)],
where MAX correspond to AUC of the vehicle (DMSO) treated enzyme, and X corresponds to the AUC of the compound treated enzyme.
An inhibition at 11 µM greater than 50% was found for CCOC(=O)/C=C/CNCCCCN1c2ccc(COC)cc2CCc2ccc(Cl)cc21 [Compound 75, Ethyl (E)-4-[4-(7-chloro-2-methoxymethyl-10,11-dihydro-dibenzo[b,f]azepin-5-yl)-butylamino]-but-2-enoate maleate] in this work.
An inhibition at 11 µM greater than 50% was found for CCC(=O)/C=C/CN(C)CCCCN1c2ccccc2CCc2ccc(Cl)cc21 [Compound 54, (E)-6-[4-(3-chloro-10,11-dihydro-5H-dibenzo[b,f]azepin-5-yl)butyl-methyl-amino]hex-4-en-3-one maleate] in this work.
An inhibition at 11 µM of less than 30% was found for CN(C)C(=O)/C=C/CNCCCN1c2ccccc2CCc2ccc(Cl)cc21 [Compound 20, (E)-4-{[3-(3-chloro-10,11-dihydro-5H-dibenzo[b,f]azepin-5-yl)propyl]amino}-N,N-dimethyl-but-2-enamide hydrochloride] in this work.
An inhibition at 11 µM of 30 to 50% was found for CCOC(=O)/C=C/CNCCCN1c2ccccc2NC(=O)c2ccc(Cl)cc21 [Compound 23, Ethyl (E)-4-{[3-(3-chloro-11-oxo-10,11-dihydro-5H-dibenzo[b,e][1,4]diazepin-5-yl)propyl]amino}but-2-enoate maleate] in this work.
An inhibition at 11 µM greater than 50% was found for CCOC(=O)/C=C/CNCCCCN1c2ccc(CO)cc2CCc2ccc(Cl)cc21 [Compound 74, Ethyl (E)-4-[4-(7-Chloro-2-hydroxymethyl-10,11-dihydro-dibenzo[b,f]azepin-5-yl)-butylamino]-but-2-enoate maleate] in this work.
An inhibition at 11 µM greater than 50% was found for C#CCOCCN1C(=O)c2ccc(Cl)cc2N(CCCCNC/C=C/C(=O)OCC)c2ccccc21 [Compound 88, Ethyl (E)-4-{[4-[3-chloro-10-[2-(prop-2-yn-1-yloxy)ethyl]-11-oxo-10,11-dihydro-5H-dibenzo[b,e][1,4]diazepin-5-yl)butyl]amino}but-2-enoate maleate] in this work.
An inhibition at 11 µM greater than 50% was found for C#CCOCCOc1ccc2c(c1)CCc1ccc(Cl)cc1N2CCCCN(C)C/C=C/C(=O)OC [Compound 89, Methyl (E)-4-{4-[7-chloro-2-(2-prop-2-ynoxyethoxy)-10,11-dihydro-5H-dibenzo[b,f]azepin-5-yl]-butyl-methyl-amino}-but-2-enoate maleate] in this work.
An inhibition at 11 µM greater than 50% was found for CCOC(=O)/C=C/CNCCCN1c2ccccc2CCc2ccc([N+](=O)[O-])cc21 [Compound 14, Ethyl (E)-4-[3-(3-nitro-10,11-dihydro-5H-dibenzo[b,f]azepin-5-yl)propylamino]but-2-enoate maleate] in this work.
An inhibition at 11 µM of less than 30% was found for CCOC(=O)/C=C/CNCCCCN1c2ccc(OCc3ccccc3)cc2CCc2ccc(Cl)cc21 [Compound 101, Ethyl (E)-4-[4-(2-benzyloxy-7-chloro-10,11-dihydro-dibenzo[b,f]azepin-5-yl)-butylamino]-but-2-enoate maleate] in this work.
An inhibition at 11 µM greater than 50% was found for CCOC(=O)/C=C/CNCCCCN1c2ccccc2COc2ccc(Cl)cc21 [Compound 37, Ethyl (E)-4-{4-[7-chlorodibenzo[b,e][1,4]oxazepin-5(11H)-yl]butylamino}but-2-enoate maleate] in this work.
An inhibition at 11 µM greater than 50% was found for CCOC(=O)/C=C/CNCCCN1c2cc(Cl)ccc2COc2ccccc21 [Compound 35, Ethyl (E)-4-{3-[3-chlorodibenzo[b,e][1,4]oxazepin-5(11H)-yl]propylamino}but-2-enoate maleate] in this work.
An inhibition at 11 µM greater than 50% was found for CCOC(=O)/C=C/CNCCCN1c2cc(Cl)ccc2NC(=O)c2ccccc21 [Compound 26, Ethyl (E)-4-{[3-(7-chloro-11-oxo-10,11-dihydro-5H-dibenzo[b,e][1,4]diazepin-5-yl)propyl]amino}but-2-enoate maleate] in this work.
An inhibition at 11 µM greater than 50% was found for CCOC(=O)/C=C/CN(C)CCCCN1c2ccccc2CCc2ccc(Cl)cc21 [Compound 63, Ethyl (E)-4-{[4-(3-chloro-10,11-dihydro-5H-dibenzo[b,f]azepin-5-yl)butyl]-methyl-amino}but-2-enoate maleate] in this work.
An inhibition at 11 µM greater than 50% was found for CCOC(=O)/C=C/CNCCCN1c2cc(Cl)ccc2CCc2cncnc21 [Compound 32, Ethyl (E)-4-{[3-(9-chloro-5,6-dihydro-11H-pyrimido[4,5-b][1]-benzazepin-11-yl)propyl]amino}but-2-enoate fumarate] in this work.
An inhibition at 11 µM greater than 50% was found for CCOC(=O)/C=C/CNCCCC(=O)N1c2ccccc2CCc2ccc(Cl)cc21 [Compound 38, Ethyl (E)-4-{[4-(3-chloro-10,11-dihydro-5H-dibenzo[b,f]azepin-5-yl)-4-oxo-butyl]amino}but-2-enoate maleate] in this work.
An inhibition at 11 µM greater than 50% was found for CN(C/C=C/C(=O)CCc1ccccc1)CCCCN1c2ccccc2CCc2ccc(Cl)cc21 [Compound 53, (E)-6-[4-(3-chloro-10,11-dihydro-5H-dibenzo[b,f]azepin-5-yl)butyl-methyl-amino]-1-phenyl-hex-4-en-3-one maleate] in this work.
An inhibition at 11 µM greater than 50% was found for CN(C/C=C/C(=O)OCCOCCOCCOCCOCCOCCNC(=O)CCCC[C@@H]1SC[C@@H]2NC(=O)N[C@@H]21)CCCCN1c2ccccc2CCc2ccc(Cl)cc21 [Compound 95, 2-(2-{2-[2-(2-{2-[5-((3aS,4S,6aR)-2-Oxo-hexahydro-thieno[3,4-d]imidazol-4-yl)-pentanoylamino]-ethoxy}-ethoxy)-ethoxy]-ethoxy}-ethoxy)-ethyl (E)-4-{[4-(3-chloro-10,11-dihydro-dibenzo[b,f]azepin-5-yl)-butyl]-methyl-amino}but-2-enoate] in this work.
An inhibition at 11 µM greater than 50% was found for CCOC(=O)/C=C/CNCCCCN1c2cc(Cl)ccc2C(=O)N(CCOCCOC)c2ccccc21 [Compound 86, Ethyl (E)-4-{[4-(3-chloro-10-[2-(2-methoxyethoxy)ethyl]-11-oxo-10,11-dihydro-5H-dibenzo[b,e][1,4]diazepin-5-yl)butyl]amino}but-2-enoate maleate] in this work.
An inhibition at 11 µM greater than 50% was found for COCCOCCOC(=O)/C=C/CNCCCCN1c2ccccc2CCc2ccc(Cl)cc21 [Compound 93, 2-(2-Methoxy-ethoxy)-ethyl (E)-4-[4-(3-chloro-10,11-dihydro-dibenzo[b,f]azepin-5-yl)-butylamino]but-2-enoate maleate] in this work.
An inhibition at 11 µM greater than 50% was found for CCOC(=O)/C=C/CNCCCCN1c2ccc(OCCOC)cc2CCc2ccc(Cl)cc21 [Compound 97, Ethyl (E)-4-{4-[7-Chloro-2-(2-methoxy-ethoxy)-10,11-dihydro-5H-dibenzo[b,f]azepin-5-yl]-butylamino}-but-2-enoate maleate] in this work.
An inhibition at 11 µM greater than 50% was found for CC(=O)/C=C/CN(C)CCCCN1c2cc(Cl)ccc2C(=O)N(Cc2ccccc2)c2ccccc21 [Compound 60, 10-Benzyl-3-chloro-5-(4-{methyl[(E)-4-oxo-pent-2-en-1-yl]amino}butyl)-5,10-dihydro-11H-dibenzo[b,e][1,4]diazepin-11-one maleate] in this work.
An inhibition at 11 µM greater than 50% was found for CON(C)C(=O)/C=C/CN(C)CCCN1c2ccccc2CCc2ccc(Cl)cc21 [Compound 6, (E)-4-[3-(3-Chloro-10,11-dihydro-5H-dibenzo[b,f]azepin-5-yl)propyl-methyl-amino]-N-methoxy-N-methyl-but-2-enamide] in this work.
